Our source for the ED50 and MIC values is ChEMBL document CHEMBL1131775, “The synthesis of water soluble prodrugs analogs of echinocandin B” (1999).

Converted amounts (≈) assume the structure as drawn. Starred links: 1 amine or outer side, 2 acyl side, 3 side chain; linkers in the order of their positions; H or OH if unused. Positions of bridges follow the written chain, without caps; N, C: chain ends. Non-standard residues stand in square brackets, D forms with d. Residues, ends and D or L forms follow the SMILES beside them. *: point of attachment. pTerphenylCO(4''-OnC5H11) = CCCCCOc1ccc(-c2ccc(-c3ccc(C(=O)*)cc3)cc2)cc1; Orn(4R-OH,5R-OH) = O=C([C@H](C[C@@H](O)[C@@H](O)N[*:3])N[*:1])[*:2]; hTyr(3S-OH,4S-OH) = N[C@H](C(=O)O)[C@H](O)[C@@H](O)c1ccc(O)cc1; X1 = COP(=O)(O)Oc1ccc(C[C@@H](O)[C@H](N[*:1])C(=O)[*:2])cc1; Orn(4R-OH) = O=C([C@H](C[C@@H](O)CN[*:3])N[*:1])[*:2]; Pro(3S-OH,4S-Me) = C[C@H]1CN[C@H](C(=O)O)[C@H]1O; Hyp = O=C(O)[C@@H]1C[C@@H](O)CN1

Experiment [1] concerns Candida albicans. In words: In vitro antifungal activity against candida albicans after intraperitoneal administration of the compound. Format: functional. The following applies: ip.
In experiment [2] the test system is Candida albicans. In words: In vitro antifungal activity against candida albicans. The format is functional.

By ED50 is commonly meant the dose that gives a 50% effect, or the effect in half of the subjects. Higher therefore signals weaker potency. By MIC is commonly meant the least concentration at which growth counts as inhibited. In the experiment with Candida albicans [1], `CCCCCOc1ccc(-c2ccc(-c3ccc(C(=O)N[C@H]4C[C@@H](O)CNC(=O)[C@@H]5[C@@H](O)[C@@H](C)CN5C(=O)[C@H]([C@@H](C)O)NC(=O)[C@H]([C@H](O)Cc5ccc(OP(=O)(O)OC)cc5)NC(=O)[C@@H]5C[C@@H](O)CN5C(=O)[C@H]([C@@H](C)O)NC4=O)cc3)cc2)cc1` ({pTerphenylCO(4''-OnC5H11)}-[Orn(4R-OH)]T[Hyp][X1]T[Pro(3S-OH,4S-Me)]; lactam 1-C) registered an ED50 of 0.47 mg/kg. In addition, in the experiment on Candida albicans [2], the lowest concentration to inhibit growth (MIC) was 0.312 µg/mL (≈ 0.26 µM).

Consider `CCCCCOc1ccc(-c2ccc(-c3ccc(C(=O)N[C@H]4C[C@@H](O)[C@@H](O)NC(=O)[C@@H]5[C@@H](O)[C@@H](C)CN5C(=O)[C@H]([C@@H](C)O)NC(=O)[C@H]([C@H](O)[C@@H](O)c5ccc(O)cc5)NC(=O)[C@@H]5C[C@@H](O)CN5C(=O)[C@H]([C@@H](C)O)NC4=O)cc3)cc2)cc1` [ANIDULAFUNGIN] ({pTerphenylCO(4''-OnC5H11)}-[Orn(4R-OH,5R-OH)]T[Hyp][hTyr(3S-OH,4S-OH)]T[Pro(3S-OH,4S-Me)]; lactam 1-C), for which the 50% effect level with Candida albicans [1] (ED50) was put at a dose of 0.32 mg/kg. The MIC against Candida albicans [2] worked out at 0.01 µg/mL (≈ 0.00877 µM).
